# Earlier results, collected in paper PMC10950972, “Relative bioavailability of fedratinib through various alternative oral administration methods in healthy adults” (Cancer Chemotherapy and Pharmacology, 2023).
# Assays:
# [1] = parameters: method as in PMID 34480861; conditions: patients; compared with healthy adults and patients with rheumatoid arthritis; cited from earlier work
# [2] = parameters: method as in PMID 15598479; conditions: cited from earlier work
SMILES,PK after solution of crushed tablets via nasogastric tube vs PK previously reported [1],"Differences in bioavailability and PK parameters, intact capsules vs nasogastric administration [2]"
CCS(=O)(=O)N1CC(CC#N)(n2cc(-c3ncnc4[nH]ccc34)cn2)C1 [baricitinib],consistent with PK results previously reported,–
COc1cc2ncnc(Nc3ccc(F)c(Cl)c3)c2cc1OCCCN1CCOCC1 [gefitinib],–,no clinically significant differences
